Test results: patent US10588896B2, “Agents for the treatment of retroviral infectious diseases” (IMMUNOLOGIK GMBH, priority 2014, dated 2020)
Entries after “also recorded” stand apart in the source; their conditions may differ. Where two headings read alike, the source gives them in different places.

Columns and labels:
[1] = system: HIV-1NL4-3 (R5 tropic); experiment: HIV-1 replication in infected PBMC cultures (macrophages), reverse transcriptase activity in supernatant; format: cell-based; settings: for reduction of the HIV-1 replication capacity: 5 donors
Description: As could be shown in the preceding example that PR-619 inhibits the late processes in Gag processing this effect on the spread of infection was investigated. According to the invention, isolated primary human peripheral blood mononuclear cell (PBMC) cultures were infected to this aim with the virus strain HIV-1NL4-3(X4 tropic) or HIV-1 NLNL4-3(R5 tropic). One day after infection cells were washed with PBS (phosphate buffer saline), provided with fresh medium containing the DUB inhibitor PR-619 in several non-cytotoxic concentrations (3.5 μM, 7 μM, 14 μM, 28 μM). The treatment with DUB inhibitors was carried out over the entire experimental period (“permanent treatment”) or only on Day 1 and Day 3 after infection (“structured treatment”). In the infection with HIV-1NL4-3 (R5 tropic), only a permanent treatment was performed. Each 2-3 days samples from the cell culture supernatants were taken, frozen and later on used for determining reverse transcriptase activity. Concomitantly, 80% of the cell culture medium was replaced and fresh PR-619 was added. Reverse transcriptase activity (ccpm) was determined in the cell-free cell culture supernatants and plotted against time (FIGS. 4A and 4B; the black arrows indicate the treatment with PR-619).
In permanent treatment 3.5 μM yielded a reduction by 35%(±8%), 7 μM a reduction by 60%(±9%) and 14 μM by 100%.
For comparative purposes, the anti-retroviral effect found for PR-619 was compared with three other DUB inhibitors P005091, WP1130 and P22077. Experiments were carried out as described in Example 2.
In order to clarify the question whether a combined permanent treatment with PR-619 and the proteasome inhibitor bortezomib (Velcade®) causes a synergistic effect on the replication capacity of HIV-1, a cross titration was carried out with both substances (analogous to Example 2 and 3). Herein, PBMC cultures were treated permanently after infection with the virus strain HIV-1NL4-3, first only with the DUB inhibitor PR-619 or with the proteasome inhibitor bortezomib in non-toxic increasing concentrations (PR-619: 0.3 μM, 0.9 μM, 2.75 μM and 8 μM; bortezomib: 0.6 nM, 1.5 nM, 5.3 nM and 16 nM).
Herein, the cells were treated permanently with constantly 0.6 nM bortezomib and increasing concentrations of PR-619 (0.3 μM, 0.9 μM, 2.7 μM and 8 μM). Experiments were carried out as described in Example 2. […] The DUB inhibitor PR-619 is able to inhibit the HIV-1 replication beginning with a concentration of 2.7 μM (FIG. 12B).

[2] = system: HIV-1NL4-3 (X4 tropic); experiment: HIV-1 replication in infected PBMC cultures (T cells), reverse transcriptase activity in supernatant; format: cell-based; settings: for concentration beginning with which HIV-1 replication is inhibited / HIV-1 replication / inhibition of the HIV-1 replication / reduction of the HIV-1 replication capacity (AUC): T cells; for concentration beginning with which HIV-1 replication is inhibited: substance alone; for HIV-1 replication: structured and permanent treatment; for reduction of the HIV-1 replication capacity (AUC): 6 donors
Procedure: According to the invention, isolated primary human peripheral blood mononuclear cell (PBMC) cultures were infected to this aim with the virus strain HIV-1NL4-3(X4 tropic) or HIV-1 NLNL4-3(R5 tropic). […] The treatment with DUB inhibitors was carried out over the entire experimental period (“permanent treatment”) or only on Day 1 and Day 3 after infection (“structured treatment”). In the infection with HIV-1NL4-3 (R5 tropic), only a permanent treatment was performed. Each 2-3 days samples from the cell culture supernatants were taken, frozen and later on used for determining reverse transcriptase activity. Concomitantly, 80% of the cell culture medium was replaced and fresh PR-619 was added. Reverse transcriptase activity (ccpm) was determined in the cell-free cell culture supernatants and plotted against time (FIGS. 4A and 4B; the black arrows indicate the treatment with PR-619).
For six different donors the area under the curve (AUC) in the HIV-1 replication profiles after infection of PBMCs with T-cell tropic virus was determined, representing the HIV-1 replication capacity.
Experiments were carried out as described in Example 2. […]

[3] = system: PBMC cultures
Procedure: Toxicity was assessed with a WST assay. Herein viable cells with an intact mitochondrial succinate-tetrazolium dehydrogenase system effect an enzymatic conversion of the feebly red tetrazolium salt WST-1 (4-[3-(4-iodophenyl)-2-(4-nitrophenyl)-2H-5tetrazolio]-1,3 benzene disulfonate) into the dark red formazan. This color change can be measured photometrically in a spectrophotometer. Thus, the WST assay is a very sensitive method for measuring the toxicity of substances on the cell metabolism.
The respective percentage of dead cells was depicted in comparison to untreated control (100%).

[4] = system: HIV-1NL4-3 (X4-tropic) or HIV-1NL4-3 (R5-tropic); experiment: HIV-1 replication in human lymphoid aggregate culture (HLAC) ex vivo tonsillar tissue; format: cell-based; settings: for reduction of the HIV-1 replication capacity: T cells and macrophages, permanent treatment, 3 replication profiles
Procedure: In order to substantiate the inhibition of the HIV replication under treatment with PR-619, as observed in Example 2, according to the invention human ex vivo cultivated tonsillar tissue was infected with the virus strain HIV-1NL4-3 (X4-tropic) or HIV-1NL4-3 (R5-tropic). The experiments were carried out as described in Example 2.

[5] = system: HIV-1 Gag structure proteins; experiment: Western Blot analysis of HIV-1 Gag processing in HeLa cells transfected with pNLΔenv (cell and VLP fraction); format: cell-based
Procedure: In order to investigate whether PR-619 and its derivatives inhibit the processing of HIV-1 Gag structure proteins, Western Blot (WB) analyses were carried out. Therefore, HeLa cell cultures were transfected with the pNLΔenv plasmid which encodes for HIV-1 proteins excluding the env envelope proteins. This enables the production of virus-like particles (VLPs), an established in vitro model in HIV-1 research. 24 h after transfection the cells were transferred to reaction vessels, and a pre-incubation with PR-619 for 1 h was performed. Thereupon, the cells were washed three times with PBS and incubated for 4 h in fresh RPMI medium either with 20 μM PR-619 (Merck-Millipore) or with the corresponding amount of DMSO as solvent control at 37° C.
Then a separation into a cell and a VLP fraction was effected by means of centrifugation. VLPs were purified from the cell culture supernatants via a 20% sucrose cushion. Cells were then washed with PBS and lysed with RIPA buffer. Protein concentrations were determined by means of Bradford protein assays and assimilated for the respective lysates. […]
A densitometric evaluation of Gag processing in the VLP fraction was carried out with the analysis program AIDA®. The densitometric evaluation allows for the quantification of signal intensities in Western Blot and thus conclusions on the quantity of a certain protein in the sample. […]

[6] = system: HLAC cultures; experiment: WST assay cytotoxicity in HLAC cultures from ex vivo tonsillar tissue; format: cell-based, human
[7] = system: MHC-I antigen presentation of Gag-derived epitopes; experiment: MHC-I antigen presentation of Gag-derived SL epitope in HeLa-Kb cells, FACS with mAB 25D1.16; format: cell-based, human; settings: HeLa-Kb cells transfected with Gag-SL, 7 and 14 μM, dose-dependent
Description: Since there is no conformation-dependent MHC-I specific antibody that could detect Gag epitopes bound to human MHC-I molecules the ovalbumin-derived sequence […] (SL) was introduced as a model epitope into the non-structured SP1 spacer region of Gag. For measuring the MHC-I antigen presentation, HeLa cells constitutively expressing the murine SL-binding MHC-I allotype H2-Kb (HeLa-Kb) (Porgador et al., 1997, Immunity 6(6), 715-726) were transfected with expression plasmids coding for Gag-SL proteins. Performing flow cytometric analyses the monoclonal antibody (mAB) 25D1.16 was used which recognizes specifically SL in the complex with H2-Kb.
24 h after transfection the cells were incubated overnight with different concentrations of the DUB inhibitor PR-619 (7 and 14 μM).
Then, an acid wash (acid washing buffer pH 3) was carried out for removing the H2-Kb-SL complexes from the cell surface. Thereafter, the cells were incubated with and without PR-619 for 4 h at 37° C. and then the newly loaded H2-Kb-SL complexes at the cell surface under inhibition with PR-619 were determined by FACS analysis with the monoclonal AB 25D1.16. For compensating possible differences in the expression level of Gag-SL, the mean fluorescence intensity (MFI) of the 25D1.16 staining was normalized to the MFI of the intracellular Gag signal.

CC(C)C[C@H](NC(=O)[C@H](Cc1ccccc1)NC(=O)c1cnccn1)B(O)O [bortezomib, reference compound]
concentration beginning with which HIV-1 replication is inhibited ([1]; permanent treatment, substance alone): 5.3 nM | concentration beginning with which HIV-1 replication is inhibited ([2]; permanent treatment): 5.3 nM | reduction in living cells ([3]; 16 nM, permanent treatment): 60% | toxicity (WST assay) ([3]; 0.6-5.3 nM, permanent treatment): did not display any toxicity

CC(=O)c1cc([N+](=O)[O-])c(Sc2cccc(Cl)c2Cl)s1 [P005091, 1-[5-[(2,3-dichlorophenyl)thio]-4-nitro-2-thienyl]-ethanone, reference compound]
HIV-1 replication ([1]; 0.75 μM, 1.5 μM and 3 μM): does not inhibit HIV-1 replication | HIV-1 replication ([2]; 0.75 μM, 1.5 μM and 3 μM): does not inhibit HIV-1 replication | toxicity (WST assay) ([3]; 0.75-3 μM, day 13): shows no toxicity

COc1ccc(C[C@H](NC(=O)[C@H](C)NC(=O)CN2CCOCC2)C(=O)N[C@@H](Cc2ccccc2)C(=O)[C@@]2(C)CO2)cc1 [PR-957, reference compound]
concentration beginning with which HIV-1 replication is inhibited ([2]; permanent treatment): 80 nM | toxicity (WST assay) ([3]; 20-160 nM, permanent treatment): did not display any toxicity

N#CSc1cc(SC#N)c(N)nc1N [PR-619, 2,6-diaminopyridine-3,5-bis(thiocyanate)]
reduction of the HIV-1 replication capacity ([1]; permanent treatment, 3.5 μM): 35%(±8%) | reduction of the HIV-1 replication capacity ([1]; permanent treatment, 7 μM): 60%(±9%) | reduction of the HIV-1 replication capacity ([1]; permanent treatment, 14 μM): 100% | inhibitory effect on the HIV-1 replication ([4]; 1.25 μM): did not exert an inhibitory effect | inhibition of the replication ([4]; 2.5 μM, 5 μM and 10 μM): clear, respectively complete inhibition of the replication | reduction of the HIV-1 replication capacity ([4]; 2.5 μM): 40%(±9%) | reduction of the HIV-1 replication capacity ([4]; 5 μM): 86%(±2%) | reduction of the HIV-1 replication capacity ([4]; 10 μM): completely | Gag processing (Western Blot) ([5]; 20 μM PR-619, 4 h, HeLa cells transfected with pNLΔenv): significantly inhibits Gag processing | generation of the main Gag processing product CA (densitometric evaluation, VLP fraction) ([5]; 20 μM PR-619, VLP fraction): clearly inhibited | antiviral efficacy (concentration) ([2]; PBMC): about 3.5 μM | inhibition of the HIV-1 replication ([2]; 3.5 μM, permanent treatment): complete | inhibition of the HIV-1 replication ([2]; 3.5 μM, structured treatment): clear | reduction of the HIV-1 replication capacity (AUC) ([2]; permanent treatment, 3.5 μM): 50%(±16%) | reduction of the HIV-1 replication capacity (AUC) ([2]; permanent treatment, 7 μM): 97%(±15%) | reduction of the HIV-1 replication capacity (AUC) ([2]; permanent treatment, 14 μM): 100% | concentration beginning with which HIV-1 replication is inhibited ([2]; permanent treatment): 2700 nM | reduction of the HIV-1 replication capacity (AUC) ([2]; structured treatment, 3.5 μM): 23%(±14%) | reduction of the HIV-1 replication capacity (AUC) ([2]; structured treatment, 7 μM): 94%(±14%) | reduction of the HIV-1 replication capacity (AUC) ([2]; structured treatment, 14 μM): 100% | toxic effect (WST assay) ([6]; all applied antiretrovirally effective concentrations, 15 days): did not display any significant toxic effect | toxic effects (WST assay) ([6]; highest concentration of 10 μM): no toxic effects were observed | concentration at which a clear toxic effect starts ([3]; PBMC, 15 days): 28 µM | toxic effect (WST assay) ([3]; antivirally effective concentrations, observation period of 15 days): did not display any significant toxic effect; also recorded: does not display a significant toxic effect | toxic effect (WST assay) ([3]; highest used concentration of 8 μM, permanent treatment): did not show either a clear toxic effect | increase of MHC-I antigen presentation of Gag-derived epitopes [7]: 6 fold

CCC[C@H](NC(=O)/C(C#N)=C/c1cccc(Br)n1)c1ccccc1 [WP1130, (2E)-3-(6-bromo-2-pyridinyl)-2-cyano-N-[(1S)-1-phenylbutyl]-2-propenamide, reference compound]
HIV-1 replication ([1]; 3 μM and 6 μM): no significant reduction of the HIV-1 replication | HIV-1 replication ([2]; 3 μM and 6 μM): no significant reduction of the HIV-1 replication | toxicity (WST assay) ([3]; concentration >3 μM, day 13): complete death of the cells | reduction in living cells ([3]; permanent treatment, 3 μM, day 13): 40%

CC(=O)c1cc([N+](=O)[O-])c(Sc2ccc(F)cc2F)s1 [P22077, reference compound]
HIV replication ([2]; 7.5 μM, 15 μM, 30 μM and 60 μM): nearly complete inhibition of HIV replication | general cytotoxic damage of the host cell ([3]; 7.5 μM, 15 μM, 30 μM and 60 μM): does not exist
